Measured values taken from patent US7732480B2, “Bicyclic compounds as modulators of androgen receptor function and method” (Bristol-Myers Squibb Company, priority 2004, dated 2010).

Experiments:
[1] = biological target: glucocorticoid receptor (Homo sapiens, UniProt P04150); details: concentration ≦10 μM; A549 cells, 10 ng/mL PMA, 7 h
Method: The AP-1 assay is a cell-based luciferase reporter assay. A549 cells, which contain endogenous glucocorticoid receptor, were stably transfected with an AP-1 DNA binding site attached to the luciferase gene. Cells are then grown in RPMI+10% fetal calf serum (charcoal-treated)+Penicillin/Streptomycin with 0.5 mg/mL geneticin. Cells are plated the day before the assay at approximately 40000 cells/well. On assay day, the media is removed by aspiration and 20 μL assay buffer (RPMI without phenol red+10% FCS (charcoal-treated)+Pen/Strep) is added to each well. At this point either 20 μL assay buffer (control experiments), the compounds of the present invention (“test compounds”) (dissolved in DMSO and added at varying concentrations) or dexamethasome (100 nM in DMSO, positive control) are added to each well. The plates are then pre-incubated for 15 min at 37° C., followed by stimulation of the cells with 10 ng/mL PMA. The plates are then incubated for 7 h at 37° C. after which 40 μL luciferase substrate reagent is added to each well. Activity is measured by analysis in a luminometer as compared to control experiments treated with buffer or dexamethasome.

[2] = biological target: T1, AR (Rattus norvegicus, UniProt P15207); details: castrated rats
T1 sequence (P15207 1-902): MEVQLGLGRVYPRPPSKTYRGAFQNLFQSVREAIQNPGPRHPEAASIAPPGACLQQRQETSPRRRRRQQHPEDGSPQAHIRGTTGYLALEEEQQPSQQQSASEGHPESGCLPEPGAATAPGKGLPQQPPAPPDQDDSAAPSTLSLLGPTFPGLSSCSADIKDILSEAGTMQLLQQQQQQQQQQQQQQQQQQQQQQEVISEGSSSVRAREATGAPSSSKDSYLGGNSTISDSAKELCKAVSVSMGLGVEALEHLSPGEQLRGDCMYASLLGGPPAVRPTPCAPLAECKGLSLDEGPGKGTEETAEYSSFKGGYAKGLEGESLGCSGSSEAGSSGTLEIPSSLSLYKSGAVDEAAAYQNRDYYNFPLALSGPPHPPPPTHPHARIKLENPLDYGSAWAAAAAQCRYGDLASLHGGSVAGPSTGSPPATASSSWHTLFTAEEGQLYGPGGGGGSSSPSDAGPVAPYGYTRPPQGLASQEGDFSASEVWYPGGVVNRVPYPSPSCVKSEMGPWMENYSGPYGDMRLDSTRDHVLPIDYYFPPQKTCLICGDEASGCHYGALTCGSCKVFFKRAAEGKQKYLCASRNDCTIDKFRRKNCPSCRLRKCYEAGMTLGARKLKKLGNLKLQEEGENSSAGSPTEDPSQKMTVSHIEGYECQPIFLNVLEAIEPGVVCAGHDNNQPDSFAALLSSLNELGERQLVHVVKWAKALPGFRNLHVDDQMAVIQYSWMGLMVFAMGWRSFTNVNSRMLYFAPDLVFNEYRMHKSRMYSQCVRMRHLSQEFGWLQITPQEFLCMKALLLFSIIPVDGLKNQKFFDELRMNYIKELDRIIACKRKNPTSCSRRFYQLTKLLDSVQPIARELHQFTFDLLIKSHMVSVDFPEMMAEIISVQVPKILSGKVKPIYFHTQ
Excerpt: The activity of compounds of the present invention as AR agonists was investigated in an immature male rat model, a recognized test of anabolic effects in muscle and sustaining effects in sex organs for a given compound, as described in L. G. Hershberger et al., Proc. Soc. […] Biol. Med., 83, 175 (1953); B. L. Beyler et al, “Methods for evaluating anabolic and catabolic agents in laboratory animals”, J. Amer. Med. Women's Ass., 23, 708 (1968); H. Fukuda et al., “Investigations of the levator ani muscle as an anabolic steroid assay”, Nago Dai. Yak. Ken. Nem. 14, 84 (1966) the disclosures of which are herein incorporated by reference.
The basis of this assay lies in the well-defined action of androgenic agents on the maintenance and growth of muscle tissues and sexual accessory organs in animals and man. […] J. Anat. […] Ital. Biol. Sper. […] II. […] Ital. Biol. Sper. 42, 1600 (1966); A. Boris et al., Steroids 15, 61 (1970). As described above, the effects of androgens on maintenance of male sexual accessory organs, such as the prostate and seminal vesicles, is well described. Castration results in rapid involution and atrophy of the prostate and seminal vesicles. This effect can be reversed by exogenous addition of androgens. […]

[3] = biological target: wild type AR; details: read-out: Kd for [3H]-DHT; MDA 453 cells (wild type AR), Scatchard analysis
Excerpt: For the saturation analysis, the difference between the total binding and the non-specific binding, was defined as specific binding. […] See e.g. D. Rodbard, Mathematics and statistics of ligand assays: an illustrated guide: In: J. Langon and J. J. Clapp, eds., Ligand Assay, Masson Publishing U.S.A., Inc., New York, pp. 45-99, (1981), the disclosure of which is herein incorporated by reference.
Two replicates were used for each sample.
[formula] After correcting for non-specific binding, IC50 values were determined. […] C2C12 Mouse Myoblast Transactivation Assay

glucocorticoid receptor, sequence (P04150 whole entry): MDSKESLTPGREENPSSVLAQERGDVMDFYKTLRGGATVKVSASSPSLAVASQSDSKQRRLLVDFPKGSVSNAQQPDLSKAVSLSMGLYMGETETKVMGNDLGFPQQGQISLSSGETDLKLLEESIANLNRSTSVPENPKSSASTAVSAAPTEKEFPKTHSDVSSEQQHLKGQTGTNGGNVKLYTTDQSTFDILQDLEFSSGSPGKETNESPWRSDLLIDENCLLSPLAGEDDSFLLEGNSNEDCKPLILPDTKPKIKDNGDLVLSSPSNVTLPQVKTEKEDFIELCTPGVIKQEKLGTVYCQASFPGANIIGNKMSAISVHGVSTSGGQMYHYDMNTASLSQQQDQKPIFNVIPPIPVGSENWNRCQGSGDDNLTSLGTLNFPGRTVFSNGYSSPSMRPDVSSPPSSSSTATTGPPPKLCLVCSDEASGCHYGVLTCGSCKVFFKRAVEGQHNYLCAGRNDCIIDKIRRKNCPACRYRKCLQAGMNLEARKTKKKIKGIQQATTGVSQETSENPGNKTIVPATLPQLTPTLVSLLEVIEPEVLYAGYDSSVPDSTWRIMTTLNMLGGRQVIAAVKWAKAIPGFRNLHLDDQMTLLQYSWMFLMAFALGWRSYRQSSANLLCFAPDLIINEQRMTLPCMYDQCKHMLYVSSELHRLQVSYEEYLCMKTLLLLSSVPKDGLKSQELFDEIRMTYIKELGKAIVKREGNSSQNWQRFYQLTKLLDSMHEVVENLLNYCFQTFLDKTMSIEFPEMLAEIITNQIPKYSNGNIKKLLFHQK

C[C@@H]1C[C@H]2[C@@H]3CCC4=CC(=O)C=C[C@]4(C)[C@@]3(F)[C@@H](O)C[C@]2(C)[C@@]1(O)C(=O)CO [dexamethasone]
% inhibition of the AP-1 reporter system vs buffer control with PMA [1]: 65%

CCC(=O)O[C@H]1CC[C@H]2[C@@H]3CCC4=CC(=O)CC[C@]4(C)[C@H]3CC[C@]12C [TP, testosterone propionate]
EC50 (increase in organ weight) [2]: ~0.03 mg
potency relative to free T ([2]; organ weight increase): 10-30 fold

tritiated dihydrotestosterone [[^3H]-DHT]
Kd [3]: 700 pM
